Results taken from US20180265423A1, “Pesticide Dispersion in Concentrated Aqueous Fertilizer Solution” (priority 2014, published 2018).
Blank lines part the entries; values can stand above or below the compound they belong to.

Key:
Type in all cases: physicochemical
[1] = Quick screening of crystal growth potential in fertilizer concentrates and water, solid pesticides containing a carboxylic acid group (Example 2); conditions: for suitability for suspension in fertilizer solutions: review of table 3
Protocol: Samples were prepared by adding the components followed by hand-shaking. Samples were placed at 0° C. and observation was made after 1 day, unless otherwise specified.

[2] = Study of additional surfactants in 10-34-0, 27-4-0 and diluted 10-34-0 fertilizers (Example 8)
[3] = Stability of 50% clothianidin in 50% URAN 32 fertilizer (Example 6); conditions: 0.5 g in 100 g URAN 32 fertilizer solution
Protocol: 0.5 g Witcolate D-510 surfactant was added into 100 g URAN 32 fertilizer solution (50 wt % URAN 32 in water). […] Then 100 g clothianidin was added to the resulting solution and mixed well by hand-shaking. This sample was stable and had about 10% top clear with a smooth bottom suspension after 2 weeks at 40° C.
In other experiments, 0.3% of a pH adjusting agent (40 wt % Citric acid), was included in the SC sample (homogenized sample) and no noticeable effect was observed on stability. Viscosity measurements were made with a Brookfield viscometer at various speeds (rpm) at room temperature with a #64 spindle. This sample was very viscous but it was highly shear-thinning.

[4] = Storage stability of 40% clothianidin SC in 10-34-0 with wetting agent Witcolate D-510 (Example 5); conditions: clothianidin suspension in 10-34-0
Protocol: The test samples were prepared by adding 60 grams of 10-34-0 fertilizer (from Plant Food) to a bottle. Then various amounts of Witcolate D-510 (2-ethylhexyl sulfate) were added to the 10-34-0 fertilizer and mixed well. Finally, 40 grams of clothianidin (technical grade) was added to the mixture and mixed well by shaking by hand.

[5] = powder pesticide (glyphosate acid 2, 2,4-D acid 1.3, others 1 wt %) in 10-34-0, no wetting agent
[6] = powder pesticide (glyphosate acid 2, 2,4-D acid 1.3, others 1 wt %) in 10-34-0, no wetting agent, 0° C., 1 day unless otherwise specified
[7] = powder pesticide (glyphosate acid 2, 2,4-D acid 1.3, others 1 wt %) in 40% AMS, no wetting agent
[8] = powder pesticide (glyphosate acid 2, 2,4-D acid 1.3, others 1 wt %) in 40% AMS, no wetting agent, 0° C., 1 day unless otherwise specified
[9] = powder pesticide (glyphosate acid 2, 2,4-D acid 1.3, others 1 wt %) in URAN 32, no wetting agent, 0° C., 1 day unless otherwise specified
[10] = powder pesticide (glyphosate acid 2, 2,4-D acid 1.3, others 1 wt %) in Water, no wetting agent
[11] = powder pesticide (glyphosate acid 2, 2,4-D acid 1.3, others 1 wt %) in Water, no wetting agent, 0° C., 1 day unless otherwise specified
[12] = 30 wt % powder pesticide in 70 wt % 10-34-0, no wetting agent

Compound: O=C(O)COc1ccc(Cl)cc1Cl [2,4-D acid]
Comment: suitability [1, 5]: particles. Not suitable
Comment: crystal growth or other change [1, 6]: Crystal growth between powder
Comment: dissolution [1, 6]: Not dissolved
Comment: powder sank or floated [1, 6]: Powder sank
Comment: suitability [1, 7]: particles. Not suitable
Comment: crystal growth or other change [1, 8]: Crystal growth between powder
Comment: dissolution [1, 8]: Not dissolved
Comment: powder sank or floated [1, 8]: Powder sank
Comment: suitability ([1]; powder pesticide (glyphosate acid 2, 2,4-D acid 1.3, others 1 wt %) in URAN 32, no wetting agent): particles. Not suitable
Comment: crystal growth or other change [1, 9]: Crystal growth between powder
Comment: dissolution [1, 9]: Not dissolved
Comment: powder sank or floated [1, 9]: Powder sank
Comment: suitability [1, 10]: particles. Not suitable
Comment: crystal growth or other change [1, 11]: Crystal growth between powder
Comment: dissolution [1, 11]: Not dissolved
Comment: powder sank or floated [1, 11]: Powder sank
suitability for suspension in fertilizer solutions [1]: may not be suitable

Surfactant Suitability ([2]; 27-4-0 99, surfactant 1 wt): Not suitable
suitability for the fertilizers tested ([2]; review of table 10): not suitable
Compound: CCCCC(CC)COC(=O)CC(C(=O)OCC(CC)CCCC)S(=O)(=O)O.[Na] (stereo not shown) [Aerosol AOT-75, sodium bis (2-ethyl hexyl) sulfosuccinate]

Compound: COc1c(Cl)ccc(Cl)c1C(=O)O [Dicamba acid]
Comment: suitability [1, 5]: Not suitable
Comment: crystal growth or other change [1, 6]: Crystal formed at bottom at 0 C.
Comment: crystal growth or other change [1, 8]: Oily drop formed at bottom.
Comment: dissolution [1, 9]: Dissolved
Comment: suitability [1, 10]: Not suitable
Comment: crystal growth or other change [1, 11]: Crystal formed at 0 C. and
suitability for suspension in fertilizer solutions [1]: may not be suitable

Compound: O=C(O)CNCP(=O)(O)O [Glyphosate acid]
Comment: dissolution [1, 12]: Powder not dissolved. Powder
Comment: suitability [1, 12]: at room temp. Not suitable
Comment: crystal growth or other change ([1]; 30 wt % powder pesticide in 70 wt % 10-34-0, no wetting agent, at room temp): Crystal growth on container wall
Comment: dissolution [1, 6]: Dissolved at room temp
Comment: suitability [1, 7]: Not suitable
Comment: dissolution [1, 8]: Dissolved
Comment: crystal growth or other change [1, 11]: Crystal growth at room temp
Comment: dissolution [1, 11]: Not dissolved
suitability for suspension in fertilizer solutions [1]: may not be suitable

Appearance ([2]; 27-4-0 99.4, surfactant 0.6 wt): Clear
Compound: CCCCCCCCCCCC(=O)OCCOCCOCCOCCOCCOCCOCCOCCOCCOCCOCCOCCOCCOCCOCCOCCOCCOCCOCCOCCOCC(OCCOCCOCCOCCOCCOCCOCCOCCOCCOCCOCCOCCOCCOCCOCCOCCOCCOCCOCCOCCO)C1OCC(OCCOCCOCCOCCOCCOCCOCCOCCOCCOCCOCCOCCOCCOCCOCCOCCOCCOCCOCCOCCO)C1OCCOCCOCCOCCOCCOCCOCCOCCOCCOCCOCCOCCOCCOCCOCCOCCOCCOCCOCCOCCO (stereo not shown) [Tween 20, Polysorbate-20]

dissolution of surfactant in URAN 32 [3]: dissolved in URAN 32 readily
Appearance ([2]; 27-4-0 76.6, surfactant 23.4 wt): Clear
Compound: CCCCC(CC)COS(=O)(=O)[O-].[Na+] (stereo not shown) [Witcolate D510, 2-ethylhexyl sulfate]

surfactant in place of Witcolate D-510 to produce similar clothianidin suspensions [4]: suitable
Compound: C4-C6 phosphate ester with less than 7EO units (acid form)

Appearance ([2]; 27-4-0 89.4, surfactant 10.6 wt): Clear
Compound: C810-3EO sulfate [C810-3EO sulfate (40%)]

Appearance ([2]; 10-34-0 56.1, Water 30.7, surfactant 13.2 wt): Clear
Appearance ([2]; 27-4-0 81.2, surfactant 18.8 wt): Clear
Compound: Sodium C810 sulfate [Sodium C810 sulfate (40%)]

Appearance ([2]; 27-4-0 91.3, surfactant 8.7 wt): Clear
Compound: Sodium Laureth-2 sulfate [Witconate ES-2]
